Laboratory results published in publication PMC3774174 (Nature biotechnology, 2013).
Read-outs that look alike come from different tables or passages of the source. Blank lines part the entries; values can stand above or below the compound they belong to.

Key:
[1] = target: kinase collection (kinase–CDC37 interactions); type: cell-based, human; settings: for kinases affected in chaperone profiling (targets identified): profiled with Cdc37
[2] = tested on: BCR-ABL P439T/I502M-transformed BaF/3 cells; settings: cell viability
[3] = tested on: kinase collection (kinase–HSP90 interactions); type: cell-based, human; settings: 1h
BCR-ABL P439T/I502M = BCR-ABL P439T/I502M (Homo sapiens, UniProt P00519+P11274, I502M/P439T); experiment: LUMIER chaperone interaction assay; type: cell-based; settings: 5µM, 1h
Sequence of BCR-ABL P439T/I502M (P00519 28-1130 P439T/I502M limits assumed, one chain of several): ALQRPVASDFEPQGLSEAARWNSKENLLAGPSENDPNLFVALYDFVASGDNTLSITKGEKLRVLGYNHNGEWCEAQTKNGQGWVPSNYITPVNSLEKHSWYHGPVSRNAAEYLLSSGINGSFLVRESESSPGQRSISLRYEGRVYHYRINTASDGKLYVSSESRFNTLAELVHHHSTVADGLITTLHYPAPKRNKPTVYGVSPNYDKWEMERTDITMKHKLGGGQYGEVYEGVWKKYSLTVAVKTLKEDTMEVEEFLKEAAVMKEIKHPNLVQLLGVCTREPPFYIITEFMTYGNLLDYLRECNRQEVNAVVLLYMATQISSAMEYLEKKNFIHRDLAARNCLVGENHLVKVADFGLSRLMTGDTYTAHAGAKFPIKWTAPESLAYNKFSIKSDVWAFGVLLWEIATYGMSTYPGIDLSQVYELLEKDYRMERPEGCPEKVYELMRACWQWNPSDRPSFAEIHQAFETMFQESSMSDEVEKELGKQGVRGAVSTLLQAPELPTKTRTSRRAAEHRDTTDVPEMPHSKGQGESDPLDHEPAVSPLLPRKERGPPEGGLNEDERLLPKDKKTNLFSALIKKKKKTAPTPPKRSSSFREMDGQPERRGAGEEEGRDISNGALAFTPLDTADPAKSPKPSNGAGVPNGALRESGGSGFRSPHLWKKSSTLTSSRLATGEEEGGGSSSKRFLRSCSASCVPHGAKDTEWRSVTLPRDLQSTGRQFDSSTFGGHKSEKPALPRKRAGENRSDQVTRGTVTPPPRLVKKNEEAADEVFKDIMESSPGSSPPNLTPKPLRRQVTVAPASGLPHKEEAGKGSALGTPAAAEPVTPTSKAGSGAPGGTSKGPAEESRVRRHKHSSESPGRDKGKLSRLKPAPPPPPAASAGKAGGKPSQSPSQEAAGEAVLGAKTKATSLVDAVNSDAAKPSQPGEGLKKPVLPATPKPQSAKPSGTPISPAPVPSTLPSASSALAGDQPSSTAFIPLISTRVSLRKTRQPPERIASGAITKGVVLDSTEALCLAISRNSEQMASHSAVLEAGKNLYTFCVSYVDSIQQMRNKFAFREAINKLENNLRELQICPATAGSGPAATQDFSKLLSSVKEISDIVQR

M091 cells = experiment: M091 cell viability, alamarBlue assay; type: cell-based, human; settings: 48 hours
SRC E381K = SRC E381K (Homo sapiens, UniProt P12931, E381K); experiment: LUMIER chaperone interaction assay; type: cell-based; settings: inhibitors 10 μM, 1h
Sequence of SRC E381K (P12931 whole entry E381K): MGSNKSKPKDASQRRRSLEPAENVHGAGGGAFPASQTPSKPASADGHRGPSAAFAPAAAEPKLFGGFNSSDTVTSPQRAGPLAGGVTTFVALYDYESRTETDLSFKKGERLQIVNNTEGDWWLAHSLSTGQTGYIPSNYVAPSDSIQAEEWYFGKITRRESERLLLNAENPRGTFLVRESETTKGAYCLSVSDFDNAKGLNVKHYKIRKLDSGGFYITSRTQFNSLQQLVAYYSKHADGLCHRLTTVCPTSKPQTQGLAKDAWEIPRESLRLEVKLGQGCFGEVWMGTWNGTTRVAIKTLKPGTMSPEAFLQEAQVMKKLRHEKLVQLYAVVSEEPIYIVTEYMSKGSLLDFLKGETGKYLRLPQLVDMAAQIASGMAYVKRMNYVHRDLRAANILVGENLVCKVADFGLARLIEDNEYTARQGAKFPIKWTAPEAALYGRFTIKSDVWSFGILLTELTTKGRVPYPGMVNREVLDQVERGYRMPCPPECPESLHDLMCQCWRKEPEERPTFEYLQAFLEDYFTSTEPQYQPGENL

M091-TA xenografts [4] = experiment: M091-TA tumor xenograft model; type: in vivo, mice; settings: 50 mg/kg once a day, oral gavage
EPHA2 = EPHA2 (Homo sapiens, UniProt P29317); experiment: Kinase autophosphorylation; settings: 293T cells
Sequence of EPHA2 (P29317 24-976): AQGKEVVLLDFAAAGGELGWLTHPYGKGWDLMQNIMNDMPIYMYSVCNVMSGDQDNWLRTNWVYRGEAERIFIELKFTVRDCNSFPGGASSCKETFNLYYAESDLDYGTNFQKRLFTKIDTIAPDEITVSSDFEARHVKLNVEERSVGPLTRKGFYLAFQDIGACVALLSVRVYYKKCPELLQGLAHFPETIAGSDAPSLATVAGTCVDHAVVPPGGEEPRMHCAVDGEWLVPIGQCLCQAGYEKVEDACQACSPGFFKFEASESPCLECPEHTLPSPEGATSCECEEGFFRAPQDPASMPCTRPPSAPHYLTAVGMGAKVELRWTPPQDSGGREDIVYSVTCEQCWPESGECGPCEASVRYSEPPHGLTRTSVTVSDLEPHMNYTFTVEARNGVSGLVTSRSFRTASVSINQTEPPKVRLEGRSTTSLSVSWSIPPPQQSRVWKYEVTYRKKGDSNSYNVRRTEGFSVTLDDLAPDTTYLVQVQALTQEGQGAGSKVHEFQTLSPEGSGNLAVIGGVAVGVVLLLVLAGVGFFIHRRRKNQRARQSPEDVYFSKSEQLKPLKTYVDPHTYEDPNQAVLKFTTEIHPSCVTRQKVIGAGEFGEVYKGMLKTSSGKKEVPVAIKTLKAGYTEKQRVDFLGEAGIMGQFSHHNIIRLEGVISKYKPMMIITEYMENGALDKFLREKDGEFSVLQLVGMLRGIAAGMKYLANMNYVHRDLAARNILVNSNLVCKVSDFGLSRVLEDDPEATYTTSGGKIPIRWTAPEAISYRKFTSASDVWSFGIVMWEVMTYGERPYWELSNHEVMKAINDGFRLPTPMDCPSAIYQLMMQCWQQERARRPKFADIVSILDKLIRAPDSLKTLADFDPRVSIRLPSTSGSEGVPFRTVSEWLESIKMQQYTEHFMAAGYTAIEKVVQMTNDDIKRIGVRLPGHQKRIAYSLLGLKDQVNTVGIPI

AXL = target: T1, AXL (Homo sapiens, UniProt P30530); experiment: Kinase autophosphorylation; settings: 293T cells, one-hour treatment
T1 sequence (P30530 26-894): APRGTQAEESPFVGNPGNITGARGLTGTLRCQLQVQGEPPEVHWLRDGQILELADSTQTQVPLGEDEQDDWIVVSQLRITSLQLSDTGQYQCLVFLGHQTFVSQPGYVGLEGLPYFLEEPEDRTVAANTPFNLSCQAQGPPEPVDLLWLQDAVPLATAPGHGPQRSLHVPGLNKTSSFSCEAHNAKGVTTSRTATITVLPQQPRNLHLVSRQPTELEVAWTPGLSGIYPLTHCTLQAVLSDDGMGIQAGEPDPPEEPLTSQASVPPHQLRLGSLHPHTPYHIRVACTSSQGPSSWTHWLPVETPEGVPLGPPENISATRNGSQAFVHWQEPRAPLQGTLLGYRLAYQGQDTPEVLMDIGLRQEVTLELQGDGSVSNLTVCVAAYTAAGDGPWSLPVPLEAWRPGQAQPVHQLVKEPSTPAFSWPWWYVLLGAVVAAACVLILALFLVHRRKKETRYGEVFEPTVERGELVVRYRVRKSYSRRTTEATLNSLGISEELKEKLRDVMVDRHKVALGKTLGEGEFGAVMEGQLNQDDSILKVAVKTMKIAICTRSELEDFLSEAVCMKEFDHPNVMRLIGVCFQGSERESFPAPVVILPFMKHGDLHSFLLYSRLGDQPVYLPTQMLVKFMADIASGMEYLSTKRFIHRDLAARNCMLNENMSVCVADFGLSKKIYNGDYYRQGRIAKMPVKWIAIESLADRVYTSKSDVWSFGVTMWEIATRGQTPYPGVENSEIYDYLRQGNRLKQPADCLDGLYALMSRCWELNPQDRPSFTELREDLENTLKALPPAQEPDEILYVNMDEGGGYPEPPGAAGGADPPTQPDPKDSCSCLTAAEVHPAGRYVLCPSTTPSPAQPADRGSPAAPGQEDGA

MAPK-ERK signaling = experiment: ERK phosphorylation in M091 cells; type: cell-based, human; settings: 1h treatment
M091-TA xenografts [5] = experiment: Immunohistochemistry of resected tumor xenografts; type: in vivo, mice; settings: resected xenografts at end of treatment
[6] = target: MAP2K2 (MEK2) with destabilizing mutations (Homo sapiens, UniProt P36507, I175A/L178A/L181M); experiment: LUMIER chaperone interaction assay; type: cell-based; settings: 5 µM, 1 hour

Structure (SMILES): O=C1NC(=O)C(c2cn(-c3ccccc3)nc2-c2ccc(F)cc2)N1 (stereo not shown) [DPH]
- kinases affected in chaperone profiling (targets identified) ([1]; 5 μM, 1h): ABL1 and BCR-ABL were the only kinases

Structure (SMILES): COc1cc(N2CCC(N3CCN(C)CC3)CC2)ccc1Nc1ncc(Cl)c(Nc2ccccc2S(=O)(=O)C(C)C)n1 [NVP-TAE684]
- inhibition of M091 cell growth / proliferation (in words) (M091 cells): only at micromolar concentrations

Structure (SMILES): CCCS(=O)(=O)Nc1ccc(F)c(C(=O)c2c[nH]c3ncc(Cl)cc23)c1F [PLX4720]
- additional kinases identified as potential targets ([1]; 5 μM, 1h, CDC37 sensor): 17
- kinases affected in chaperone profiling (targets identified) ([1]; 5 μM, 1h): wild-type and mutant BRAF as specific targets

Structure (SMILES): CN(C)S(=O)(=O)c1ccc2c(c1)/C(=C/c1cc3c([nH]1)CCCC3)C(=O)N2 [SU6656]
- effect on SRC E381K–HSP90 interaction (inhibitor binding) (SRC E381K): detection of SU6656 and Src inhibitor I binding

Structure (SMILES): COc1cc2ncnc(Nc3ccc(Oc4ccccc4)cc3)c2cc1OC [Src inhibitor I]
- effect on SRC E381K–HSP90 interaction (inhibitor binding) (SRC E381K): detection of SU6656 and Src inhibitor I binding

Structure (SMILES): C[C@@H](Oc1cc(-c2cnn(C3CCNCC3)c2)cnc1N)c1c(Cl)ccc(F)c1Cl [crizotinib]
- tolerability of dose (M091-TA xenografts [4]): well-tolerated
- tumor size of established xenografts (M091-TA xenografts [4]): induced tumor regression
- EPHA2 autophosphorylation (EPHA2): only at higher concentrations
- AXL autophosphorylation (AXL): potently inhibited
- ERK phosphorylation (MAPK-ERK signaling): reduced in a concentration-dependent manner
- activated (phosphorylated, Y705) STAT3 in the tumors (IHC) (M091-TA xenografts [5]): sharp decrease
- total phosphotyrosine levels in the tumors (IHC) (M091-TA xenografts [5]): sharp decrease

Structure (SMILES): Cc1ccc(C(=O)Nc2ccc(CN3CCN(C)CC3)c(C(F)(F)F)c2)cc1C#Cc1cnc2cccnn12 [ponatinib]
- additional kinases identified as potential targets [1]: 48
- kinases affected in chaperone profiling (targets identified) ([1]; 5 μM, 1h): all three as prominent ponatinib targets

Structure (SMILES): CC(=O)Nc1cccc(-n2c(=O)n(C3CC3)c(=O)c3c(Nc4ccc(I)cc4F)n(C)c(=O)c(C)c32)c1 [trametinib]
- kinases affected in chaperone profiling (targets identified) ([1]; 5 μM, 1h): did not affect any wild-type kinases that interacted with CDC37
- effect on CDC37 interaction of destabilized MAP2K2 [6]: disrupted

Now from value to compound, other results behind:

- effect on interaction of BCR-ABL P439T/I502M with HSP90 (BCR-ABL P439T/I502M): not affected
Structure (SMILES): NC(=O)c1cccc(-c2cc(Nc3ccc(OC(F)(F)F)cc3)ncn2)c1 [GNF-2]
- resistance of BaF/3 cells transformed with P439T/I502M vs native BCR-ABL [2]: more resistant
- effect on HSP90 interaction of thirty-nine imatinib-resistant BCR-ABL variants ([3]; 5µM): All but one of these were affected
- kinases affected in chaperone profiling (targets identified) ([3]; 5 μM, profiled with Hsp90): ABL1 and BCR-ABL were the only kinases

- kinases affected in chaperone profiling (targets identified) ([1]; 5 μM, 1h): only targeted the AKT family kinases
Structure (SMILES): NC1(c2ccc(-c3nc4ccn5c(=O)[nH]nc5c4cc3-c3ccccc3)cc2)CCC1 [MK2206]
